Assay results as given in paper PMC5675611, “GZD824 suppresses the growth of human B cell precursor acute lymphoblastic leukemia cells by inhibiting the SRC kinase and PI3K/AKT pathways” (Oncotarget, 2016).

Assays:
Format in all cases: cell-based, human
[1] = tested on: STAT3 target genes (BCL-XL, CCND1, CDK4, CDKN1A); test: qRT-PCR of STAT3 target genes; conditions: 3 μM, 24 hours, normalized to GAPDH, vs control
Procedure: Figure 5 GZD824 inhibits the SRC kinase in pre-B ALL cells A-C. Western blot analysis of […]-treated NALM6 cells. Cells were treated with DMSO, GZD824 (1μM), or GZD824 (3μM) for 24 hours. Lysates were analyzed with antibodies to (A) phospho-SRC and SRC; (B) phospho-STAT3 and STAT3; and (C) phospho-Rb, Rb, and C-Myc. D. qRT-PCR products of BCL-XL, CCND1, CDK4, and CCK[…] mRNA were normalized to GAPDH and presented as fold increase or decrease compared to control, 24 hours after treatment with 3 μM GZD824. E. NALM6 cells were treated with GZD824, SRC inhibitor (KX2-391), STAT3 inhibitor (HO-3867), or DMSO for 24 hours. Statistical analysis of Annexin V-positive cells in 3μM of drug treated NALM6 cells. All data from independent experiments are presented as mean ± SEM. Significance values: ^*P<0.05; ^**P<0.01; ^***P<0.001. RNA was extracted using TRIzol reagent (15596-026, Invitrogen, Grand Island, NY, USA), according to the manufacturer's recommended protocol. qRT-PCR was performed using Applied Biosystems StepOne and StepOne Plus Real-Time PCR Systems (Foster City, CA, USA). The experiments were repeated a minimum of three times to confirm the results.

IRS1 = test: Western blot of primary pre-B ALL cells; conditions: GZD824 1μM, IGF-1 10ng/ML, 24 hours
Procedure: (§1) Figure 6 GZD824 inhibits PI3K/AKT signaling in pre-B ALL cells A. Cells were harvested from PB, SP, and BM of P#2 xenograft mice and cultured with or without 1μM GZD824 for 24h. Bars represent the mean percentages of AnnexinV+ cells in each group. B. Primary pre-B ALL cells from spleen of P#1 xenograft mouse treated with DMSO, GZD824 (1μM), IGF-1 (10ng/ML), or both. Bars represent the mean percentages of AnnexinV+ cells in each group. C. Western blot analysis of NALM6 cells. Cells were treated with DMSO, GZD824 (1μM), or GZD824 (3μM) for 24 hours. Lysates were analyzed with antibodies against IRS1, phosphate AKT, and AKT. D. Western blot analysis of primary pre-B ALL cells. Primary cells treated with GZD824 (1μM), IGF-1 (10ng/ML), or both for 24 hours. Lysates were analyzed with antibodies against Irs1, phosphate AKT, and AKT.
(§2) For Western blot analysis, 30 μg of total protein extracts prepared from NALM6 or primary pre-B ALL cells from SP of PDX mice were separated on SDS-PAGE and transferred to a PVDF membrane (Bio-Rad, Hercules, CA, USA). The following commercially available antibodies and dilutions were used for Western blotting: human anti-STAT3 (ab119352, Abcam, UK), human anti-phospho-STAT3 (Y705) (ab76315, Abcam, UK), human anti-SRC (ab32102, Abcam, UK), human anti-phospho-SRC (Y419) (ab185617, Abcam, UK), human anti-RB (9313, Cell Signaling Technology, MA, USA), human anti-phospho–RB (Ser807/811) (8516, Cell Signaling Technology, MA, USA), human anti-C-myc (13987, Cell Signaling Technology, MA, USA), anti-AKT (pan) (4691P, Cell Signaling Technology, MA, USA), anti-phospho-AKT (Ser473) (4060P, Cell Signaling Technology, MA, USA), anti-IRS-1 (2390S, Cell Signaling Technology, MA, USA), and human anti–β-actin (4970, Cell Signaling Technology, MA, USA). Western blot analysis was performed with cell lines or primary pre-B ALL cells from SP following GZD824 treatment, and signal intensities were normalized to β-actin signals.

[2] = tested on: phosphorylated AKT (Ser473); test: Western blot of primary pre-B ALL cells; conditions: GZD824 1μM, IGF-1 10ng/ML, 24 hours
Procedure: as §1, §2

primary pre-B ALL cells = test: Annexin V apoptosis of primary pre-B ALL cells
Procedure: Human pre-B ALL cells were obtained from spleen (SP) of sick pre-B ALL xenograft mice. Human CD45+ pre-B ALL cells, accounting for over 95% of the total SP mononuclear cells, were subjected in vitro assay. To determine the in vitro anticancer efficacy of GZD824, the drug was applied to fresh splenic pre-B ALL cells that were directly isolated from sick pre-B ALL xenograft mice in 3 independent experiments. In addition, fresh splenic cells were analyzed 24 hours post drug treatment. At this time point about 20% of the total cells in the vehicle group are apoptotic. […] All cells were cultured at 37°C in 5% carbon dioxide and a normal level of oxygen.
(§3) For identification of apoptotic cells among NALM6, SUPB15, and primary pre-B ALL cells, the GZD824-treated cells were stained with Annexin V Apoptosis Detection Kit (88-8007, BD ebioscience, CA, USA) according to the manufacturer's instructions (Affymetrix ebioscience, CA, USA) and then subjected to flow cytometric analysis by the Accuri™ C6 (BD Biosciences, CA, USA). For the in vitro drug sensitivity test in Figure 6A, the human CD45+ cells in spleen and bone marrow from sick mice account for over 95% of the total. We enriched human CD45+ cells in PB by MACS according to the manufacturer's instruction. After the enrichment, the purity of human CD45+ cell in PB reached 95%. The percentage of apoptotic cells was demarcated as the amount of both early and late facets of apoptosis (annexin V positive), as previously described. All data were analyzed with FlowJo software (Tree Star, Inc., Ashland, USA).

NALM6 cells = test: Annexin V apoptosis flow cytometry
Procedure: Human pre-B ALL cell lines NALM6 and SUPB15 were purchased from American Type Culture Collection (ATCC, Maryland, USA). All pre-B ALL cell lines were maintained in cell culture media and conditions as recommended by the ATCC. Cells were treated with GZD824 for 24 hours. GZD824 (3μM, 1μM, or 0.5μM) was used in the experiments unless otherwise noted. NALM6 and SUPB15 cells were maintained in RPMI-1640 medium (Gibco, New York, NY, USA) with 10% fetal bovine serum (Biochrom, Melbourne, Australia).
as §3

In the case of Cc1ccc(C(=O)Nc2ccc(CN3CCN(C)CC3)c(C(F)(F)F)c2)cc1C#Cc1cnc2[nH]ncc2c1 [GZD824], the “BCL-XL mRNA expression” value [1] is reported as “downregulation”, the “CCKN1A (CDKN1A) mRNA expression” value [1] is reported as “upregulated” and the “CCND1 mRNA expression” value [1] is reported as “downregulation”. The “CDK4 mRNA expression” value [1] was “downregulation”, the “levels of IRS1” value (IRS1) was “reduction” and the “levels of phosphorylated AKT (Ser473)” value [2] was “reduction”. The “percentages of apoptotic cells” value (primary pre-B ALL cells; all five patient samples (P#1-P#5), 1μM, vs DMSO) was “significantly increased”, the “percentages of apoptotic pre-B ALL cells derived from BM compared to those from SP and PB” value (primary pre-B ALL cells; cells from P#2 xenograft mice, 1μM GZD824, 24 hours in vitro) was “significantly lower” and the “apoptotic levels, GZD824 alone vs both GZD824 and IGF-1” value (primary pre-B ALL cells; primary pre-B ALL cells from spleen of P#1 xenograft mouse, GZD824 1μM, IGF-1 10ng/ML) was “much higher apoptotic levels”. The “percentages of apoptotic cells” value (NALM6 cells; NALM6, 500 nM) was “did not increase”, the apoptotic rate (NALM6 cells; NALM6, 1μM, 24 h) was “moderate” and the “apoptosis (Annexin V-positive cells), comparison of inhibitors” value (NALM6 cells; NALM6, 3μM of drug, 24 hours, Fig 5E) was “significantly increased apoptotic level”. The “cells undergoing apoptosis (AnnexinV+)” value (NALM6 cells; NALM6, 3μM, 24 h) was 74.4%.
